Results from patent US8710233B2 (Gruenenthal GmbH, priority 2005, dated 2014).
Where two headings read alike, the source gives them in different places.

Experiments:
Type in all cases: cell-based
[1] = biological target: T1, vanilloid receptor 1 (VR1/TRPV1) of the rat species (Rattus norvegicus, UniProt O35433); experiment: FLIPR Ca2+ influx assay on rat dorsal root ganglia cells (pharmacological method I)
T1 construct: The spinal column is removed from decapitated rats; from tissue; host or cells: primary cells dissociated from rat dorsal root ganglia
Method in brief: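 Primary rat dorsal root ganglion cells loaded with 2 μM Fluo-4, Ca2+ influx read on FLIPR as peak fluorescence. Triplicates, at least 3 independent experiments.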

VR1/TRPV1 receptor = VR1/TRPV1 receptor (Homo sapiens, UniProt Q8NER1); experiment: IC50 (human) after pH stimulus; conditions: for inhibition at 1 µM: ne = no effect
vanilloid receptor (VR1) = biological target: T2, vanilloid receptor (VR1) (Homo sapiens, UniProt Q8NER1); experiment: FLIPR Ca2+ influx assay on CHO K1 cells transfected with the VR1 gene (pharmacological method II)
T2 construct: expressed in transfected cells; host or cells: CHO K1 cells (ECACC), stably transfected

[2] = table 4, capsaicin, read-out: Ki (rat) Cap.
[3] = read-out: inhibition in percent, IC50 (human) after pH stimulus
[4] = table 4, capsaicin, read-out: Ki (human) Cap.
[5] = Ki (rat) Cap., table 4, capsaicin
[6] = Table 2, displacement of capsaicin (100 nM), Cheng-Prusoff, read-out: Ki (rat)
[7] = Table 2, displacement of capsaicin (100 nM), Cheng-Prusoff, read-out: Ki (human)

T1 sequence (O35433 whole entry): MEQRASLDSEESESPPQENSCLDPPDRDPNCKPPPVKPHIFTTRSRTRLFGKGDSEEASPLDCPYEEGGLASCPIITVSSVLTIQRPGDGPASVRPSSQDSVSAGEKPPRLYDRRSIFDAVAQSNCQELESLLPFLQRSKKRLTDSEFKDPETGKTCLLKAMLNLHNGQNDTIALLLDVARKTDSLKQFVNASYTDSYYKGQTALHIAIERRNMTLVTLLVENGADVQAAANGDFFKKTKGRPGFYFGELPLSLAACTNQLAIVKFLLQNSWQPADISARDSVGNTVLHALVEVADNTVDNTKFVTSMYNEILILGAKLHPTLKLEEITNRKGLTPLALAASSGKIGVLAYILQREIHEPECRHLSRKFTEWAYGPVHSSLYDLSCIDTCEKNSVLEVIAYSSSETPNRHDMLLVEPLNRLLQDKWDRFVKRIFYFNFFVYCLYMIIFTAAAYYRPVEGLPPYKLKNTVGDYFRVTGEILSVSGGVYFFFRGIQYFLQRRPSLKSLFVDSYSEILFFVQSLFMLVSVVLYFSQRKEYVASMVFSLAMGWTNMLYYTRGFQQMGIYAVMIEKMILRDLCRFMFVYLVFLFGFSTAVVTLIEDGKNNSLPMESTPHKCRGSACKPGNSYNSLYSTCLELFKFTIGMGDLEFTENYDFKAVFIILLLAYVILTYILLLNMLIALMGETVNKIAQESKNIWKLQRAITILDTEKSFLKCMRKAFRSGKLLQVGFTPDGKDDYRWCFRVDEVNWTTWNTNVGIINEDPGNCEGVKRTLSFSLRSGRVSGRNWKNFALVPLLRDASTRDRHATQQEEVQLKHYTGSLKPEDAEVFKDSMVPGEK
T2 sequence (Q8NER1 whole entry): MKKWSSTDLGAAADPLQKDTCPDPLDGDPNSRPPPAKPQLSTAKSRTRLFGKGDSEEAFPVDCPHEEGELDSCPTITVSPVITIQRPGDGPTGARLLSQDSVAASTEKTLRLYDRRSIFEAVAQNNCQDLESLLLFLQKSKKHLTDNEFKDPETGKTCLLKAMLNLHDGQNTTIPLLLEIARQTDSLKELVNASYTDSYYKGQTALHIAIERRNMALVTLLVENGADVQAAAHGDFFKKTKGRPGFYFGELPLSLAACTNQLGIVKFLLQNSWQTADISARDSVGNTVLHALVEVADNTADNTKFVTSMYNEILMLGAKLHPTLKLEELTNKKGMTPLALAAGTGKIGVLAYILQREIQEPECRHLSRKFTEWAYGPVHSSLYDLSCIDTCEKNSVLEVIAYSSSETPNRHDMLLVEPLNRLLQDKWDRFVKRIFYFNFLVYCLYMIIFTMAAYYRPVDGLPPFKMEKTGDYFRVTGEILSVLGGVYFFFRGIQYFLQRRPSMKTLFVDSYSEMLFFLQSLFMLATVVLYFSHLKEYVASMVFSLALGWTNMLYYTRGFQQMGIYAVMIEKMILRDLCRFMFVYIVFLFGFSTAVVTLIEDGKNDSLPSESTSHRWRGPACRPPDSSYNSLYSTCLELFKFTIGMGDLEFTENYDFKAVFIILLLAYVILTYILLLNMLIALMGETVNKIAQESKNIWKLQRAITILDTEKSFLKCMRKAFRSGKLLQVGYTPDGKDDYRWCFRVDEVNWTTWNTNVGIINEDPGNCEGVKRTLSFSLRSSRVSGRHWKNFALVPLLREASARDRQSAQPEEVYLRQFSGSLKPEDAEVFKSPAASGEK
VR1/TRPV1 receptor, sequence (Q8NER1 whole entry): as above

CC(C(=O)NCc1ccc(C(F)(F)F)nc1CCC(C)(C)C)c1ccc(NS(C)(=O)=O)c(F)c1 (stereo not drawn) [Example 263, N-[2-(3,3-dimethyl-butyl)-6-trifluoromethyl-pyridin-3-ylmethyl]-2-(3-fluoro-4-methylsulfonamido-phenyl)-propionamide]
Ki [1, 2]: 0.7 nM | inhibition at 1 µM (VR1/TRPV1 receptor; [3]): 63% | Ki (vanilloid receptor (VR1); [4]): 0.6 nM

CC1CCC(Oc2nc(C(F)(F)F)ccc2CNC(=O)C(C)c2ccc(NS(C)(=O)=O)c(F)c2)CC1 (stereo not drawn) [Example 157, 2-(3-fluoro-4-methylsulfonamido-phenyl)-N-[2-(4-methyl-cyclohexyloxy)-6-trifluoromethyl-pyridin-3-ylmethyl]-propionamide]
Ki [1, 5]: 1.3 nM | IC50 (VR1/TRPV1 receptor; table 4): 43.1 nM | Ki (vanilloid receptor (VR1); [4]): 2.9 nM

Cc1cccc(N2CCN(c3cc(C(F)(F)F)ccc3CNC(=O)C(C)c3ccc(NS(C)(=O)=O)c(F)c3)CC2)c1 (stereo not drawn) [Example 247, 2-(3-fluoro-4-methylsulfonamido-phenyl)-N-[2-(4-m-tolyl-piperazin-1-yl)-4-trifluoromethyl-benzyl]-propionamide]
Ki [1, 2]: 0.5 nM | inhibition at 0.1 µM (VR1/TRPV1 receptor; [3]): 36% | inhibition at 1 µM (VR1/TRPV1 receptor; [3]): 69% | Ki (vanilloid receptor (VR1); [4]): 1.8 nM

Cc1ccc(CCc2nc(C(F)(F)F)ccc2CNC(=O)C(C)c2ccc(NS(C)(=O)=O)c(F)c2)cc1 (stereo not drawn) [Example 264, 2-(3-fluoro-4-methylsulfonamido-phenyl)-N-[2-(2-p-tolyl-ethyl)-6-trifluoromethyl-pyridin-3-ylmethyl]-propionamide]
Ki [1, 2]: 0.9 nM | IC50 (VR1/TRPV1 receptor; table 4): 15.9 nM | Ki (vanilloid receptor (VR1); [4]): 0.6 nM

CCN(CC)c1nc(C(F)(F)F)ccc1CNC(=O)C(C)c1ccc(NS(C)(=O)=O)c(F)c1 (stereo not drawn) [Example 15, N-((2-(diethylamino)-6-(trifluoromethyl)pyridin-3-yl)methyl)-2-(3-fluoro-4-(methylsulfonamido)phenyl)propanamide]
Ki [1, 2]: 12 nM | IC50 (VR1/TRPV1 receptor; table 4): 148 nM | Ki (vanilloid receptor (VR1); [4]): 3.5 nM

CCCN(CCC)c1cc(C(F)(F)F)ccc1CNC(=O)C(C)c1ccc(NS(C)(=O)=O)c(F)c1 (stereo not drawn) [Example 37, N-(2-(dipropylamino)-4-(trifluoromethyl)benzyl)-2-(3-fluoro-4-(methylsulfonamido)phenyl)propanamide]
Ki [1, 2]: 1.8 nM | IC50 (VR1/TRPV1 receptor; table 4): 26.2 nM | Ki (vanilloid receptor (VR1); [4]): 0.3 nM

CC(C(=O)NCc1ccc(C(F)(F)F)nc1-c1ccc2c(c1)OCCO2)c1ccc(NS(C)(=O)=O)c(F)c1 (stereo not drawn) [Example 265, N-[2-(2,3-dihydro-benzo[1,4]dioxin-6-yl)-6-trifluoromethyl-pyridin-3-ylmethyl]-2-(3-fluoro-4-methylsulfonamido-phenyl)-propionamide]
Ki [1, 2]: 2.5 nM | inhibition at 0.1 µM (VR1/TRPV1 receptor; [3]): 17% | inhibition at 1 µM (VR1/TRPV1 receptor; [3]): 33% | Ki (vanilloid receptor (VR1); [4]): 5 nM

CC(C(=O)NCc1ccc(C(F)(F)F)nc1N1CCC2(CC1)CC(C(C)(C)C)=NO2)c1ccc(NS(C)(=O)=O)c(F)c1 (stereo not drawn) [Example 251, N-[2-(3-tert-butyl-1-oxa-2,8-diaza-spiro[4.5]dec-2-en-8-yl)-6-trifluoromethyl-pyridin-3-ylmethyl]-2-(3-fluoro-4-methylsulfonamido-phenyl)-propionamide]
Ki [1, 2]: 8.7 nM | IC50 (VR1/TRPV1 receptor; table 4): 281 nM | Ki (vanilloid receptor (VR1); [4]): 3.8 nM

CC(C(=O)NCc1ccc(C(F)(F)F)nc1OCc1ccc(F)cc1)c1ccc(NS(C)(=O)=O)c(F)c1 (stereo not drawn) [Example 175, N-[2-(4-fluoro-benzyloxy)-6-trifluoromethyl-pyridin-3-ylmethyl]-2-(3-fluoro-4-methylsulfonamido-phenyl)-propionamide]
Ki [1, 2]: 1.2 nM | IC50 (VR1/TRPV1 receptor; table 4): 25 nM | Ki (vanilloid receptor (VR1); [4]): 2.5 nM

CCOc1nc(C(F)(F)F)ccc1CNC(=O)C(C)c1ccc(NS(C)(=O)=O)c(F)c1 (stereo not drawn) [Example 163, N-(2-ethoxy-6-trifluoromethyl-pyridin-3-ylmethyl)-2-(3-fluoro-4-methylsulfonamido-phenyl)-propionamide]
Ki [1, 5]: 8.5 nM | IC50 (VR1/TRPV1 receptor; table 4): 277 nM | Ki (vanilloid receptor (VR1); [4]): 12.7 nM

CCCN(CCC)c1nc(C(F)(F)Cl)ccc1CNC(=O)C(C)c1ccc(NS(C)(=O)=O)c(F)c1 (stereo not drawn) [Example 186, N-[6-(chloro-difluoro-methyl)-2-dipropylamino-pyridin-3-ylmethyl]-2-(3-fluoro-4-methylsulfonamido-phenyl)-propionamide]
Ki [1, 2]: 0.8 nM | IC50 (VR1/TRPV1 receptor; table 4): 37.6 nM | Ki (vanilloid receptor (VR1); [4]): 0.6 nM

CCCCOc1cc(C(F)(F)F)ccc1CNC(=O)C(C)c1ccc(NS(C)(=O)=O)c(F)c1 (stereo not drawn) [Example 40, N-(2-butoxy-4-(trifluoromethyl)benzyl)-2-(3-fluoro-4-(methylsulfonamido)-phenyl)propanamide]
Ki [1, 2]: 0.4 nM | IC50 (VR1/TRPV1 receptor; table 4): 48 nM | Ki (vanilloid receptor (VR1); [4]): 1 nM

Cc1cccc(N2CCN(c3nc(C(F)(F)F)ccc3CNC(=O)C(C)c3ccc(NS(C)(=O)=O)c(F)c3)CC2)c1 (stereo not drawn) [Example 220, 2-(3-fluoro-4-methylsulfonamido-phenyl)-N-[2-(4-m-tolyl-piperazin-1-yl)-6-trifluoromethyl-pyridin-3-ylmethyl]-propionamide]
Ki [1, 2]: 2.4 nM | IC50 (VR1/TRPV1 receptor; table 4): 39.2 nM | Ki (vanilloid receptor (VR1); [4]): 3.4 nM

CCCCCCOc1nc(C(F)(F)Cl)ccc1CNC(=O)C(C)c1ccc(NS(C)(=O)=O)c(F)c1 (stereo not drawn) [Example 180, N-[6-(chloro-difluoro-methyl)-2-hexyloxy-pyridin-3-ylmethyl]-2-(3-fluoro-4-methylsulfonamido-phenyl)-propionamide]
Ki [1, 2]: 0.3 nM | IC50 (VR1/TRPV1 receptor; table 4): 22.8 nM | Ki (vanilloid receptor (VR1); [4]): 0.8 nM

CC(C(=O)NCc1ccc(C(F)(F)F)nc1OCC1CC1(C)C)c1ccc(NS(C)(=O)=O)c(F)c1 (stereo not drawn) [Example 279, N-[2-(2,2-dimethyl-cyclopropylmethoxy)-6-trifluoromethyl-pyridin-3-ylmethyl]-2-(3-fluoro-4-methylsulfonamido-phenyl)-propionamide]
Ki [1, 5]: 1.7 nM | IC50 (VR1/TRPV1 receptor; table 4): 161 nM | Ki (vanilloid receptor (VR1); [4]): 1.1 nM

CC(C(=O)NCc1ccc(C(F)(F)F)nc1-c1ccccc1)c1ccc(NS(C)(=O)=O)c(F)c1 (stereo not drawn) [Example 22, 2-(3-fluoro-4-(methylsulfonamido)phenyl)-N-((2-phenyl-6-(trifluoromethyl)pyridin-3-yl)methyl)propanamide]
Ki [1, 6]: 4.9 nM | IC50 (VR1/TRPV1 receptor; Table 2): 62 nM | Ki (vanilloid receptor (VR1); [7]): 6.4 nM

CC(C(=O)NCc1ccc(C(F)(F)F)nc1N1CCC(=O)CC1)c1ccc(NS(C)(=O)=O)c(F)c1 (stereo not drawn) [Example 227]
Ki [1, 2]: 348 nM | inhibition at 1 µM (VR1/TRPV1 receptor; [3]): 7% | inhibition at 10 µM (VR1/TRPV1 receptor; @ 10 μM, read-out: inhibition in percent, IC50 (human) after pH stimulus): 51% | Ki (vanilloid receptor (VR1); [4]): 91 nM

CC(C(=O)NCc1ccc(C(F)(F)F)nc1N1CCC(c2ccc(F)cc2)CC1)c1ccc(NS(C)(=O)=O)c(F)c1 (stereo not drawn) [Example 200, 2-(3-fluoro-4-methylsulfonamido-phenyl)-N-[4-(4-fluoro-phenyl)-6′-trifluoromethyl-3,4,5,6-tetrahydro-2H-[1,2′]bipyridinyl-3′-ylmethyl]-propionamide]
Ki [1, 2]: 3.4 nM | IC50 (VR1/TRPV1 receptor; table 4): 81 nM | Ki (vanilloid receptor (VR1); [4]): 4.2 nM

CCCCCOc1cc(C(C)(C)C)ccc1CNC(=O)C(C)c1ccc(NS(C)(=O)=O)c(F)c1 (stereo not drawn) [Example 153, N-(4-tert-butyl-2-pentyloxy-benzyl)-2-(3-fluoro-4-methylsulfonamido-phenyl)-propionamide]
Ki [1, 2]: 0.7 nM | IC50 (VR1/TRPV1 receptor; table 4): 92.4 nM | Ki (vanilloid receptor (VR1); [4]): 2.2 nM

CC(C(=O)NCc1ccc(C(F)(F)F)cc1N1CCOCC1)c1ccc(NS(C)(=O)=O)c(F)c1 (stereo not drawn) [Example 33, 2-(3-fluoro-4-(methylsulfonamido)phenyl)-N-(2-morpholino-4-(trifluoromethyl)benzyl)propanamide]
Ki [1, 6]: 4.8 nM | IC50 (VR1/TRPV1 receptor; Table 2): 1380 nM | Ki (vanilloid receptor (VR1); [7]): 7.2 nM

CC(C(=O)NCc1ccc(C(F)(F)F)nc1OCc1ccc(Cl)cc1)c1ccc(NS(C)(=O)=O)c(F)c1 (stereo not drawn) [Example 258, N-[2-(4-chloro-benzyloxy)-6-trifluoromethyl-pyridin-3-ylmethyl]-2-(3-fluoro-4-methylsulfonamido-phenyl)-propionamide]
Ki [1, 2]: 1.3 nM | IC50 (VR1/TRPV1 receptor; table 4): 132 nM | Ki (vanilloid receptor (VR1); [4]): 2.5 nM

CC(C(=O)NCc1ccc(C(F)(F)F)nc1N1CCC(C#N)(c2ccccc2)CC1)c1ccc(NS(C)(=O)=O)c(F)c1 (stereo not drawn) [Example 285, N-(4-cyano-4-phenyl-6′-trifluoromethyl-3,4,5,6-tetrahydro-2H-[1,2′]bipyridinyl-3′-ylmethyl)-2-(3-fluoro-4-methylsulfonamido-phenyl)-propionamide]
Ki [1, 2]: 4.5 nM | IC50 (VR1/TRPV1 receptor; table 4): 377 nM | Ki (vanilloid receptor (VR1); [4]): 3.5 nM

CCCOc1nc(C(F)(F)F)ccc1CNC(=O)C(C)c1ccc(NS(C)(=O)=O)c(F)c1 (stereo not drawn) [Example 111, 2-(3-fluoro-4-methylsulfonamido-phenyl)-N-(2-propoxy-6-trifluoromethyl-pyridin-3-ylmethyl)-propionamide]
Ki [1, 2]: 3.5 nM | IC50 (VR1/TRPV1 receptor; table 4): 90.1 nM | Ki (vanilloid receptor (VR1); [4]): 0.9 nM

CC(C(=O)NCc1ccc(C(C)(C)C)nc1OCc1ccccc1)c1ccc(NS(C)(=O)=O)c(F)c1 (stereo not drawn) [Example 237, N-(2-benzyloxy-6-tert-butyl-pyridin-3-ylmethyl)-2-(3-fluoro-4-methylsulfonamido-phenyl)-propionamide]
Ki [1, 2]: 2 nM | inhibition at 1 µM (VR1/TRPV1 receptor; [3]): 70% | Ki (vanilloid receptor (VR1); [4]): 4.4 nM

Cc1ccc(Nc2nc(C(F)(F)F)ccc2CNC(=O)C(C)c2ccc(NS(C)(=O)=O)c(F)c2)cc1C (stereo not drawn) [Example 135, N-[2-(3,4-dimethyl-phenylamino)-6-trifluoromethyl-pyridin-3-ylmethyl]-2-(3-fluoro-4-methylsulfonamido-phenyl)-propionamide]
Ki [1, 2]: 48.9 nM | IC50 (VR1/TRPV1 receptor; table 4): 1160 nM | Ki (vanilloid receptor (VR1); [4]): 39.3 nM
